Assay results taken from patent publication US20090047682A1, “Method of detecting and predicting bronchodilatory response to beta agonist” (COUNCIL OF SCIENTIFIC AND INDUSTRIAL RESEARCH, priority 2004, published 2009).

Test system: β2AR
Settings: Indian population; χ2=11.28, df=2, p=0.004

## CC(C)(C)NCC(O)c1ccc(O)c(CO)c1 (stereo not shown) [salbutamol]
  association of responder status to treatment with genotype at β2AR gene: strongly associated
